Counter-ions that a name gives are not always drawn.

In one test the target is CK1α (Homo sapiens, UniProt P48729+Q96SW2). In words: CK1α HiBiT assay in CK1a_HiBiT_Jurkat cells. It counts as cell-based. The following applies: DC50 class, 16 hours, Nano-Glo HiBiT Lytic Detection, read-out: CK1α degradation classification. As for the experimental part:
CK1a_HiBiT_Jurkat cells were culture in RPMI 1640 medium (Gibco, 11875093) with 10% FBS under standard tissue culture conditions. Briefly, Compounds of the present disclosure was added to 30,000 cells in a white 96-well plate (9-point dose response, top concentration […], half-log serial dilution, final DMSO concentration 0.5%) and incubated for 16 hours. CK1a level was determined in along with the Nano-Glo HiBiT Lytic Detection system [Promega N3050] with final concentration of 1 x. The luminescence was normalized to that of DMSO-treated samples. DC50 values were obtained using three-parameter non-linear regressions using Prism (GraphPad). The compounds are classified based on DC50 values as follows. • A: DC50 is less than or equal to 1×10^−7; • B: DC50 is greater than 1×10^−7 & less than or equal to 1×10^−6; • C: DC50 is greater than 1×10^−6; • NA: not calculated (no activity detected, <25% viability reduction at 1 uM)

The subject of the next test is MV-4-11 cells. The experiment in a line: AML cell viability assay (RealTime-Glo). It is filed as cell-based. The settings on record: Homo sapiens, MV4-11; IC50 class; MV-4-11 cells, RealTime-Glo after 44 hrs of treatment (TABLE 5); read-out: Cell viability classification.

Sequence of CK1α (P48729 whole entry): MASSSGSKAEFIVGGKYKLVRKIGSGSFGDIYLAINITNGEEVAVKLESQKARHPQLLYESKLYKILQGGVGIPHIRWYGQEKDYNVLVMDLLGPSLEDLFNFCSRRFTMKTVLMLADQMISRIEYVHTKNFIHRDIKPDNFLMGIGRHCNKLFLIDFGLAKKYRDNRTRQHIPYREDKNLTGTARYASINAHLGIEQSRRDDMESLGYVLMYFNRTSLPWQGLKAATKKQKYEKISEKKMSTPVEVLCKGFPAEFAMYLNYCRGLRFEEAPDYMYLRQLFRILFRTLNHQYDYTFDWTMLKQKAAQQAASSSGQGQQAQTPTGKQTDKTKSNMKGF
Sequence of CK1α (Q96SW2 whole entry): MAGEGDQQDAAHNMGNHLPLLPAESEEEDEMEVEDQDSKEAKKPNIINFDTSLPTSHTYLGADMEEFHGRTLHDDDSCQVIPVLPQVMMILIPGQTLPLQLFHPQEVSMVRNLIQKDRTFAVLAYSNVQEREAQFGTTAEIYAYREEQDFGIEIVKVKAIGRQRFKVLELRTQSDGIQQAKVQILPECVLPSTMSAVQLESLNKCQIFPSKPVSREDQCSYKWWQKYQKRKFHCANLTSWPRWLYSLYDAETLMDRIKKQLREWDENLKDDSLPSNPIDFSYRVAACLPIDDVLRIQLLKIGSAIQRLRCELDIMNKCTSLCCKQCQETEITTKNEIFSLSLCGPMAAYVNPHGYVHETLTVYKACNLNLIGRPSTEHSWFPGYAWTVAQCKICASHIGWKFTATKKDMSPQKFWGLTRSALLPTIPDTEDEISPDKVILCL
Sequence of CK1α (Q16531 whole entry partner): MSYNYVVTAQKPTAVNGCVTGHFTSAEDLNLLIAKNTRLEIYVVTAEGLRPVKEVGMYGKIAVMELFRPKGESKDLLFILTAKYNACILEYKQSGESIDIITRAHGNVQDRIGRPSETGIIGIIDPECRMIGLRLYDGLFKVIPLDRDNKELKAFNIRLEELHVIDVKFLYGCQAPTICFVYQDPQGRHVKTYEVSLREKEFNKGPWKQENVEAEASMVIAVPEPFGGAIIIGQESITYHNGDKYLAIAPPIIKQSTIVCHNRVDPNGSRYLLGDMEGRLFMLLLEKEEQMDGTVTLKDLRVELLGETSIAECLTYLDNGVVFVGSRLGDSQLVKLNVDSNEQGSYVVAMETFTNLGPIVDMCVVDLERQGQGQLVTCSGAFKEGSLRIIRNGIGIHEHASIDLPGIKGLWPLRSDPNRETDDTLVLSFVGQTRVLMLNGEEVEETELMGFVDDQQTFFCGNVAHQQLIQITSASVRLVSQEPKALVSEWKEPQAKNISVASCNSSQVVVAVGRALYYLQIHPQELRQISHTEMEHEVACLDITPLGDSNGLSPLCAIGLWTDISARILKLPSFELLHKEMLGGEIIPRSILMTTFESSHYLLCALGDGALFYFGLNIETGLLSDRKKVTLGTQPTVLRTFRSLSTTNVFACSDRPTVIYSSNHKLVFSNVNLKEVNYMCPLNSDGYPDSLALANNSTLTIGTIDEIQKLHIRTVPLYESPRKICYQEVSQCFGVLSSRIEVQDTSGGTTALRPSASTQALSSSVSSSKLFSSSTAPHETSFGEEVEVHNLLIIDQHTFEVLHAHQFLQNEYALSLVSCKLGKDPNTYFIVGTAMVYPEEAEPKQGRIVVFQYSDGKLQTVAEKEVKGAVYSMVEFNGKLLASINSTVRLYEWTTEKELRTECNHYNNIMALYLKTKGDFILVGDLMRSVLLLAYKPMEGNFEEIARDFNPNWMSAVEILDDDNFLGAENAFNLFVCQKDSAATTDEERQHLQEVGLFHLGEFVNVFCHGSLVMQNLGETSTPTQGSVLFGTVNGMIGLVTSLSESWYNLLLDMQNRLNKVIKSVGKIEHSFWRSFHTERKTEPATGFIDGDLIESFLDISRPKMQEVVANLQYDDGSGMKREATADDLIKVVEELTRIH

As to `O=C1CCC(N2Cc3c(cccc3N(CCC3CC3)[C@H]3CC[C@H](NCC4CCCO4)CC3)C2=O)C(=O)N1` (stereo partly shown) [Compound 666, 3-{4-[(2-cyclopropylethyl)[(1r,4r)-4-[(oxolan-2-ylmethyl)amino]cyclohexyl]amino]-1-oxo-3H-isoindol-2-yl}piperidine-2,6-dione], the DC50 on CK1α was not above 0.1 µM. Besides, the IC50 with MV-4-11 cells is less than 0.1 µM.

Turning to `CN(C)[C@H]1CC[C@H](N(CCC2CC2)c2cccc3c2CN(C2CCC(=O)NC2=O)C3=O)CC1` (stereo partly shown) [Compound 668, 3-{4-[(2-cyclopropylethyl)[(1r,4r)-4-(dimethylamino)cyclohexyl]amino]-1-oxo-3H-isoindol-2-yl}piperidine-2,6-dione], the DC50 at CK1α is not above 0.1 µM. Also, the IC50 with MV-4-11 cells is less than 0.1 µM.

For `O=C1CCC(N2Cc3c(cccc3N(CCC3CC3)[C@H]3CC[C@H](N4CCCC4)CC3)C2=O)C(=O)N1` (stereo partly shown) [Compound 669], the DC50 at CK1α is not above 0.1 µM. Also, the IC50 with MV-4-11 cells was 0.1 to 1 µM.

Consider `O=C1CCC(N2Cc3c(cccc3N(CCC3CC3)[C@H]3CC[C@H](N4CCC(F)(F)C4)CC3)C2=O)C(=O)N1` (stereo partly shown) [Compound 670], for which the DC50 at CK1α was not above 0.1 µM. In the test on MV-4-11 cells, the IC50 was 0.1 to 1 µM.

As for `O=C1CCC(N2Cc3c(cccc3N(CCC3CC3)[C@H]3CC[C@H](N4CCC(F)C4)CC3)C2=O)C(=O)N1` (stereo partly shown) [Compound 671, 3-{4-[(2-cyclopropylethyl)[(1r,4r)-4-(3-fluoropyrrolidin-1-yl)cyclohexyl]amino]-1-oxo-3H-isoindol-2-yl}piperidine-2,6-dione], the DC50 on CK1α is not above 0.1 µM. For the same compound, the IC50 with MV-4-11 cells fell in the range of 0.1 to 1 µM.

As to `O=C1CCC(N2Cc3c(cccc3N(CCC3CC3)[C@H]3CC[C@H](N4CCC(C(F)(F)F)C4)CC3)C2=O)C(=O)N1` (stereo partly shown) [Compound 672, 3-{4-[(2-cyclopropylethyl)[(1r,4r)-4-[3-(trifluoromethyl)pyrrolidin-1-yl]cyclohexyl]amino]-1-oxo-3H-isoindol-2-yl}piperidine-2,6-dione; trifluoroacetic acid], on CK1α, the DC50 is not above 0.1 µM. For the same compound, the IC50 with MV-4-11 cells is 0.1 to 1 µM.

For the compound `O=C1CCC(N2Cc3c(cccc3N(CCC3CC3)[C@H]3CC[C@H](N4CC(C(F)(F)F)C4)CC3)C2=O)C(=O)N1` (stereo partly shown) [Compound 673], the DC50 at CK1α is not above 0.1 µM. The IC50 in the test on MV-4-11 cells was more than 1 µM.

As for `O=C1CCC(N2Cc3c(cccc3N(CCC3CC3)[C@H]3CC[C@H](N4CCOCC4)CC3)C2=O)C(=O)N1` (stereo partly shown) [Compound 674, 3-{4-[(2-cyclopropylethyl)[(1r,4r)-4-(morpholin-4-yl)cyclohexyl]amino]-1-oxo-3H-isoindol-2-yl}piperidine-2,6-dione], the DC50 on CK1α is not above 0.1 µM. In addition, the IC50 in the test on MV-4-11 cells was less than 0.1 µM.

Regarding `O=C1CCC(N2Cc3c(cccc3N(CCC3CC3)[C@H]3CC[C@H](N[C@H]4CC[C@@H]4C(F)(F)F)CC3)C2=O)C(=O)N1` (stereo partly drawn) [Compound 675, 3-{4-[(2-cyclopropylethyl)[(1r,4r)-4-{[(1S,2S)-2-(trifluoromethyl)cyclobutyl]amino}cyclohexyl]amino]-1-oxo-3H-isoindol-2-yl}piperidine-2,6-dione; bis(trifluoroacetic acid)], at CK1α, the DC50 was not above 0.1 µM. In addition, the IC50 with MV-4-11 cells was in the range of 0.1 to 1 µM.

For `O=C1CCC(N2Cc3c(cccc3N(CCC3CC3)C3CCC(N[C@H]4C[C@@H]4C(F)(F)F)CC3)C2=O)C(=O)N1` (stereo partly drawn) [Compound 678, 3-(4-((2-cyclopropylethyl)(4-(((1S,2S)-2-(trifluoromethyl)cyclopropyl)amino)cyclohexyl)amino)-1-oxoisoindolin-2-yl)piperidine-2,6-dione Trifluoroacetate], the DC50 at CK1α lay within 0.1 to 1 µM. The IC50 in the test with MV-4-11 cells lay in the range of 0.1 to 1 µM.

As for `COCCN(C)[C@H]1CC[C@H](N(CCC2CC2)c2cccc3c2CN(C2CCC(=O)NC2=O)C3=O)CC1` (stereo partly shown) [Compound 680], on CK1α, the DC50 is not above 0.1 µM. In the test on MV-4-11 cells, the IC50 was in the range of 0.1 to 1 µM.
